Data on three molecules can be found in US10563216B2, “Compositions and methods of delivering molecules to plants” (Bloomsburg University of Pennsylvania, priority 2016, dated 2020).

This experiment has as its system AvsYS1 avenic acid/Fe+3 transporter. Description: Yeast growth assay in liquid medium; only iron available is Fe+3 complexed with the phytosiderophore or analog; DEY1453:pJKD1 (pYES2/AvsYS1) vs DEY1453:pYES2. Format: cell-based, Avena sativa. As to conditions: for growth of yeast transformants containing pJKD1 (AvsYS1 transporter): S. cerevisiae DEY1453:pJKD1, ferric iron supplied only as complex with the substance, YNB pH 7.5, BPDS. An excerpt:
AvsYS1 (Genbank FJ477297.1) was isolated using 5′RACE from the roots of iron starved oats (Avena sativa). Primers were designed by comparing one functionally confirmed phytosiderophore/Fe′ transporter (HvYS1) and other iron transport proteins. After obtaining a full-length clone, we subcloned the gene (AvsYS1) into a yeast galactose inducible expression vector (pYES2). The resultant plasmid was designated pJKD1. We obtained a yeast strain that lacks the ability to take up ferric iron, and transformed it with pYES2 and pJKD1. The transformants were grown under identical conditions in which the only iron available was in the Fe^+3/avenic acid complex.
We engineered the AvsYS1 gene into a galactose inducible expression systems vector (pYES2). Our first major result was the functional confirmation of the AvsYS1 gene. We transformed pYES2 and pJKD1 (pYES2/AvsYS1) into a strain of S. cerevisiae (DEY1453) that lacks the ability to take up Fe^+3. In the process, we developed a new assay based on growth in liquid medium. The advantage of this assay over more traditional assays used in yeast-based PS/Fe^+3 assays is that it is quantifiable. Other assays (e.g., Murata, 2006) grow yeast on a solid plate, and qualitative growth of colonies is used. With our assay, we can generate numerical data based on the density as measured by the absorbance at 600 nm. […] Further detail is provided below.
Protocols included: 53Y and 53K in DOB+FeSO4, 53Y and 53K in YNB supplemented with Avenic acid; 53Y and 53K supplemented with BPA-1-068B; 53Y and 53K in YNB w/no supplements; uninoculated YNB; uninoculated DOB.
Protocols included: 53Y and 53K, supplemented with Avenic acid, 53Y and 53K supplemented with BPA-1-068B, 53Y and 53K in YNB w/no supplements.
Strains grown in YNB/Gal, pH 7.5, Amp50, Avenic acid: Fe^+3, 5:1
Protocols included: 53Y(pYES2) and 53K(pJKD1=pYES2+AvsYS1), supplemented with Avenic acid (red arrows); 53Y and 53K supplemented with BPA-1-068B (blue arrows); 53Y and 53K in YNB w/no supplements.

Consider `O=C(CC(NCCC(NCC[C@H](O)C(=O)O)C(=O)O)C(=O)O)OCc1ccccc1O` (some centres unmarked) [BPA-1-068B], for which the “growth of yeast transformants containing pJKD1 (AvsYS1 transporter)” value (“growth … (AvsYS1 transporter)” for short) is given as “able to grow”. In addition, for the setting “Fe+3 complexed with the analog, robustness compared to DEY1453:pYES2 controls”, the “growth rate of DEY1453:pJKD1” value is given as “slower, but undeniably robust”.

For the molecule `O=C(O)C(CO)NCCC(NCC[C@H](O)C(=O)O)C(=O)O` (some centres unmarked) [MGS-2-128BF], the “growth … (AvsYS1 transporter)” value is given as “supported growth as well as avenic acid”.

Turning to `O=C(O)C(CCO)NCCC(NCC[C@H](O)C(=O)O)C(=O)O` (some centres unmarked) [avenic acid], the “growth … (AvsYS1 transporter)” value is “able to grow vigorously”. The “growth of yeast transformants with pYES2 (no transporter)” value (S. cerevisiae DEY1453:pYES2, only iron available is the Fe+3 complex with the substance) is listed as “could not”.
